# “Also recorded” adds a separate entry of the source.
# What was measured:
# [1] = biological target: T1, α-syn fibrils (Homo sapiens, UniProt P37840); experiment: α-Syn fibril/ligand binding assay (fluorescence saturation binding); conditions: for selectivity for α-syn versus Aβ fibrils (comparison of Kd values): Kd Aβ fibrils vs Kd α-syn fibrils; for Kd: synthetic α-syn fibrils 2.5 μM, PBS, 37° C., 1 h
# T1 construct: purchased R-peptide S-1001-2
# Procedure: To this suspension was added 0.2 mL phosphate buffer (10 mM, pH 7.5). The soluble materials were removed by spinning for 5 min in a centrifuge (18000 g/s). The process was repeated four times. After the fourth time, the peptide was transferred into a microtube (200 μl), and 2.5 μl of 300 mM MnCl (made in water) was added. […] The fibrils formed were spun down at 21,000 g/s for 6 min. The supernatant was discarded, and the fibril pellet was resuspended in 200 μl PBS buffer (pH=7.4).
# The mixture was incubated at 37° C. for 1 h with shaking. The mixture was spun down at 21,000 g/s for 15 min to separate the fibrils. The precipitate was washed twice with Tris-HCl and resuspended in 200 μL buffer. […] All data points were performed in triplicate. The Kd and the maximal number of binding sites (Bmax) values were determined by fitting the data to the equation Y=Bmax×X/(X+Kd) by nonlinear regression using MATLAB software (R2019B).
# [2] = biological target: T2, α-syn pathology (Lewy pathology) in human PD brain tissue (Homo sapiens, UniProt P37840); experiment: Fluorescent staining of post-mortem human PD brain tissue sections; conditions: frontal cortex sections, co-stained with Syn211 or Syn303, confocal microscopy
# T2 construct: tissue NIH Neurobiobank; host or cells: post-mortem human PD brain sections (frontal cortex, pons)
# Procedure: Sections from the pons and frontal-cortex of the PD brain were permeabilized and treated sequentially with antibody [Anti-alpha-Synuclein (aa 121-125) Antibody, clone Syn 211] and 1 μM solution of each compound and visualized by confocal microscopy. […] Column II depicts ligand fluorescence. Column III depicts fluorescence from the antibody. Column IV is a composite image created by merging the first three images. […] The pattern and labeling intensity appear similar in the antibody channel. […] In up close Z-stacked images of the treated tissue (Row C), the pathology appears to surround dark holes (arrows) in the ligand and antibody channels.
# To further characterize the sites labeled by the ligands and antibody Syn211 tissue staining experiments, contiguous cortical sections were treated with compound 8 and then either Syn211 or Syn303. As expected, the sections treated with compound 8 and Syn211 (FIG. 17, first row) show identical ligand and antibody labeling patterns that colocalize in the composite image. Both the ligand and antibody appear to label all forms of pathology present on the tissue. […]
# Midbrain tissue (Frontal cortex 5469) was embedded with Tissue-Tek O.C.T. Compound and kept in liquid nitrogen for 30 min. […] The tissue was imaged with Lecia DMi8 Motorized Fluorescence Microscope using standard excitation/emission filters for Alexa Fluor 488 or Alexa Fluor 647.
# [3] = system: β-amyloid plaques in human AD brain tissue; experiment: Fluorescent staining of post-mortem human AD brain tissue sections; conditions: cortical sections, co-stained with 4G8 antibody
# Source text: To assess the observed selectivity in α-syn versus Aβ fibril binding on aggregates in human tissue, equimolar concentrations of ligands 8, 32, and 37 were further evaluated on PD tissue as described above, alongside cortical sections from neuropathologically verified post-mortem brain samples of AD patients. […] A similar labeling pattern and efficiency are observed in the antibody channel (column III). […] The antibody, anti-β-Amyloid, 17-24 Antibody (4G8), highlights both dense core and diffuse Aβ pathology (column III).
# Midbrain tissue (Frontal cortex 5590) was embedded with Tissue-Tek O.C.T. Compound and kept in liquid nitrogen for 30 mins. The embedded tissue was sliced into 30 μm thick sections with Lecia Biosystems Cryostats under −20° C. and mounted onto Precleaned Microscope Slides. The section was washed with 1× PBST two times and then loaded into 10% formalin solution for 20 mins. The section was washed with 1× PBS three times and permeabilized with 0.1% Triton-X 100 for 10 min. The section was washed with 1× PBS two times and incubated with 2% normal Donkey serum at room temperature for 1 h. […] The tissue was imaged with Lecia DMi8 Motorized Fluorescence Microscope using standard excitation/emission filters for Alexa Fluor 488 or Alexa Fluor 647.
selectivity for α-syn versus Aβ fibrils (comparison of Kd values) [1] [fold],Kd [1] [nM],SMILES,labeling of Lewy pathology in PD brain sections [2],labeling of Aβ pathology in AD brain sections [3]
14.4,9.7,"COc1cc(/C=C/C=C2\Cc3ccccc3C2=O)ccc1O [compound 8, (E)-2-((E)-3-(4-Hydroxy-3-methoxyphenyl)allylidene)-2,3-dihydro-1H-inden-1-one]",avidly labels Lewy pathology; also recorded: labels all conformations of the pathology; also recorded: avid labeling of both large and fine deposits of the pathology,mostly dense core Aβ plaques
26,18.8,"O=C(O)c1ccc(-c2ccc(/C=C/C=C3\Cc4ccc(O)cc4C3=O)cc2)cc1 [compound 32, 4′-((E)-3-((E)-6-Hydroxy-1-oxo-1,3-dihydro-2H-inden-2-ylidene)prop-1-en-1-yl)-[1,1′-biphenyl]-4-carboxylic acid]",avid labeling of Lewy pathology,

# From patent publication US11779664B2, “Targeted contrast agents for MRI of alpha-synuclein deposition” (Texas Children's Hospital, priority 2020, dated 2023)
